Source: ChEMBL document CHEMBL4340568, “Synthesis of distal and proximal fleximer base analogues and evaluation in the nucleocapsid protein of HIV-1” (Bioorg Med Chem, 2019)
Calls of active or inactive are those of the source. The calls are words filed in the database; no cut-off is given here.

Experiments:
[1] = tested on: Human immunodeficiency virus 1; test: Antiviral activity against HIV1; assay type: functional, organism-based
[2] = tested on: Human immunodeficiency virus 1; test: Binding affinity to HIV1 Nucleocapsid protein expressed in Escherichia coli BL21(DE3) pLysE at 1:1 ratio of compound/protein by 1H NMR spectroscopy

SMILES | Activity [1] | Activity [2]
Nc1nc(-c2cc(=O)[nH]c(N)n2)cc(=O)[nH]1 | inactive | –
Nc1ncc(-c2cnc(N)[nH]c2=O)c(=O)[nH]1 | inactive | –
Nc1ncc(-c2c[nH]cn2)c(=O)[nH]1 | inactive | –
Nc1nc(-c2c[nH]cn2)cc(=O)[nH]1 | inactive | Active
